{
  "source": "patent US20040019026A1",
  "about": "“Compounds useful for treating hypertriglyceridemia” (priority 2000, published 2004)",
  "key": {"human patients": {"tested_on": "human patients", "assay": "14-day multiple dose study, 1600 mg daily: plasma triglycerides and fasting plasma glucose (Example 1)", "assay_type": "in vivo", "description": "Twelve patients were treated with 16α-fluoro-5-androstene-17-one.\nSmoking and intake of xanthine-containing beverages or food (coffee, tea, cola, chocolate) and alcohol within 24 hours, before and during the stay in the clinical research facilities were not allowed.\nThe human patients received 1600 mg of 16α-fluoro-5-androstene-17-one daily. Controls were set up so that they received 1600 mg of placebo. The triglyceride concentration in the plasma were measured pretreatment and at the end of the study. There was a significant triglyceride-lowering effect caused by the drug in the 14-day, multiple dose, study.\nIn 12 patients (excluding 2 placebos) receiving 1600 mg of 16α-fluoro-5-androsten-17-one daily, 4 patients, 3 males and one person, had pretreatment triglyceride levels>200 mg/dL. In this group of 4 patients there was a highly significant reduction in triglyceride values, whereas there was no apparent effect in the 8 patients with non-elevated triglycerides. The decline in one patient was additionally quite striking. […]\nIn addition, the fasting plasma glucose (FPG) levels were also measured in the patients before and after treatment. In the study, 3 of the 4 patients with elevated triglycerides had pre-treatment FPG levels>6.1 mM. The American Diabetes Association (ADA) has recently classified individuals with FPG of 6.1-6.9 mM as having impaired fasting glucose (IFG). Such individuals have 40% probability of developing ADA criteria for diabetes within 5 years."}, "[1]": {"tested_on": "hypertriglyceridemic patients", "assay": "Hypertriglyceridemic patients with high or low HDL, 1200 mg daily: plasma triglycerides (Example 2)", "assay_type": "in vivo, human", "settings": "for Triglyceride levels: 4 patients with low HDL levels", "description": "Five hypertriglyceridemic patients had high baseline HDL levels (>50 mg/dL, 64.2±8.5, n=10, mean±S.D.) and four hypertriglyceridemic patients had low HDL levels 40.4±4.1, n=8). They were treated as before, as described in Example 1, except they received 1200 mg of 16α-fluoro-5-androsten-17-one daily. Controls were set up so that they received 1200 mg of placebo. The triglyceride concentration in the plasma were measured pretreatment and at the end of the study.\nIn those patients with high HDL levels, the triglycerides fell from 330±163 (n=10) to 214±56.1 (n=5). However, in 4 patients with low HDL levels (40.0±4.1), treatment with 1200 mg of 16α-fluoro-5-androsten-17-one daily for 3 to 12 weeks lowered triglyceride levels from 245±55.1 (n=8) to 139±10.6 (n=4), p<0.01."}, "[2]": {"tested_on": "patients with rheumatoid arthritis", "assay": "Trial in arthritis patients, 1200 mg oral fluasterone daily: HDL levels (Example 5b)", "assay_type": "in vivo, human", "description": "In this trial patients with rheumatoid arthritis were treated for 3 to 12 weeks with 1200 mg oral fluasterone daily. A placebo group was also included."}, "[3]": {"tested_on": "male BKS.Cg-m+/+Leprdb mice", "assay": "Fasting plasma triglyceride levels in diabetic mice (Example 9)", "assay_type": "in vivo", "source_text": "Eight week old male BKS.Cg-m^+/+Lepr^db mice were obtained from Jackson Laboratories. These mice have a point mutation in the leptin receptor gene and produce a truncated receptor with impaired signaling capacity. These animals are severely insulin resistant and manifest an uncontrolled rise in blood sugar, severe depletion of the insulin-producing beta-cells of the pancreatic islets, and death by 10 months of age. The male animals also have very low plasma testosterone levels and as a consequence undeveloped seminal vesicle glands. Administration of androgens to these mice produces an increase in seminal vesicle weights similar to that seen in castrated males. Thus these animals can be used to assess androgenic potency of various compounds.\nA week later, the mice were treated subcutaneously (s.c.) with 0.05 mL fluasterone (16α-fluoro-5-androsten-17-one) suspended in an Emulphor-saline vehicle to give either a dose of 5 mg/kg s.c. or 20 mg/kg s.c. or intraperitoneally (i.p.) with 0.05 mL of fluasterone suspended in an Emulphor-saline vehicle to give a dose of 5 mg/kg. The Control mice received the Emulphor-saline vehicle s.c.\nAll the mice were anesthetized lightly with isoflurane before treatment with fluasterone to minimize the risk of stressing the mice while giving the s.c. dose. Their food was removed the afternoon before administration with drug and the chow was to the mice the next morning immediately after treatment. All the mice had their chow removed daily and restored just after fluasterone administration. During the week, the mice had access to chow for approximately 6½ hours, while on the weekends, the mice had approximately 4½ hours of access to chow. Mice were treated daily (weekdays and weekends).\nPlasma triglyceride levels were determined with a Sigma kit (334-UV ). The determination is based on the enzymatic hydrolysis of triglycerides to glycerol and free fatty acids by lipase. Glycerol is subsequently phosphorylated by ATP to produce glycerol-1-phosphate and ADP. ATP is regenerated by a pyruvate kinase-catalyzed reaction between ADP and phosphoenol pyruvate. […] NADH absorbs at 340 nm, thus the decrease in absorbance, measured at this wavelength, is directly proportional to the triglyceride concentration in the sample.\nTriglyceride Reagent A (containing ATP, lactate dehydrogenase, lipase, NADH, phosphoenol pyruvate, pyruvate kinase) and Triglyceride Reagent B were reconstituted with 10 mL and 2 mL of distilled water respectively. The Sample Regent is prepared by adding 0.25 mL of Triglyceride Reagent B to 10 mL of Triglyceride Reagent A. Blank, standards (50, 100 and 200 mg/dL) and sample tubes were prepared. One mL of Sample Reagent is added to all tubes. To the Blank tube, 20 μL of distilled water is added. For each Sample tube, 20 μL of plasma is added to the tube. All tubes were incubated at room temperature for 10 minutes. The tubes were read against a Reference containing distilled water. Triglyceride concentration in the samples were calculated by subtracting the absorbance of the Sample from the absorbance of the Blank and using the following formula: […]"}, "[4]": {"tested_on": "male BKS.Cg-m+/+Leprdb mice", "assay": "Mortality during treatment of diabetic mice (Example 9)", "assay_type": "in vivo"}},
  "data": [
    {"smiles": "C[C@]12CCCCC1=CC[C@@H]1[C@@H]2CC[C@]2(C)C(=O)[C@H](F)C[C@@H]12", "note": "[fluasterone, 16α-fluoro-5-androsten-17-one]", "values": [
      {"measurement": "Plasma triglyceride Conc.", "setting": "human patients; Elevated Triglyceride Group, Female (1), pretreatment", "value": "540 ± 42 (n = 2) mg/dL"},
      {"measurement": "Plasma triglyceride Conc.", "setting": "human patients; Elevated Triglyceride Group, Female (1), treatment 1600 mg daily, 14-day study", "value": "118 ± 19 (n = 3) mg/dL"},
      {"measurement": "Plasma triglyceride Conc.", "setting": "human patients; Elevated Triglyceride Group, Female and Male (4), pretreatment", "value": "385 ± 116 (n = 8) mg/dL"},
      {"measurement": "Plasma triglyceride Conc.", "setting": "human patients; Elevated Triglyceride Group, Female and Male (4), treatment 1600 mg daily, 14-day study", "value": "154 ± 57 (n = 11) mg/dL"},
      {"measurement": "Plasma triglyceride Conc.", "setting": "human patients; Elevated Triglyceride Group, Male (3), pretreatment", "value": "333 ± 75 (n = 6) mg/dL"},
      {"measurement": "Plasma triglyceride Conc.", "setting": "human patients; Elevated Triglyceride Group, Male (3), treatment 1600 mg daily, 14-day study", "value": "168 ± 61 (n = 8) mg/dL"},
      {"measurement": "Plasma triglyceride Conc.", "setting": "human patients; Normal Triglyceride Group (8 patients), pretreatment", "value": "106 ± 34 (n = 16) mg/dL"},
      {"measurement": "Plasma triglyceride Conc.", "setting": "human patients; Normal Triglyceride Group (8 patients), treatment 1600 mg daily, 14-day study", "value": "128 ± 77 (n = 23) mg/dL"},
      {"measurement": "FPG levels of individuals with IFG", "setting": "human patients; pretreatment", "value": "6.28 ± 0.33 (6) mM"},
      {"measurement": "FPG levels of individuals with IFG", "setting": "human patients; treatment 1600 mg daily, p < 0.02", "value": "5.63 ± 0.45 (8) (p < 0.02) mM"},
      {"measurement": "Triglyceride levels", "setting": "[1]; after 1200 mg daily for 3 to 12 weeks, p<0.01", "value": "139±10.6"},
      {"measurement": "Triglyceride levels", "setting": "[1]; pretreatment", "value": "245±55.1"},
      {"measurement": "Triglycerides", "setting": "[1]; patients with high HDL levels (>50 mg/dL), pretreatment", "value": "330±163"},
      {"measurement": "Triglycerides", "setting": "[1]; patients with high HDL levels, after 1200 mg daily", "value": "214±56.1"},
      {"measurement": "HDL Levels", "setting": "[2]; Combined (20), pretreatment", "value": "57.4 ± 14.7"},
      {"measurement": "HDL Levels", "setting": "[2]; Combined, treatment 1200 mg oral daily, 3 to 12 weeks, p < 0.02", "value": "46.9 ± 8.9"},
      {"measurement": "HDL Levels", "setting": "[2]; Females (16), pretreatment", "value": "59.8 ± 14.6 (16)"},
      {"measurement": "HDL Levels", "setting": "[2]; Females, treatment 1200 mg oral daily, 3 to 12 weeks, p < 0.01", "value": "46.8 ± 9.6"},
      {"measurement": "HDL Levels", "setting": "[2]; Males (4), pretreatment", "value": "47.0 ± 9.1 (4)"},
      {"measurement": "HDL Levels", "setting": "[2]; Males (4), treatment 1200 mg oral daily, 3 to 12 weeks", "value": "47.0 ± 5.8 (4)"},
      {"measurement": "Fasting Plasma Triglyceride Levels", "setting": "[3]; 5 mg/kg i.p., treatment day 0", "value": "136 ± 38.4", "unit": "mg/dL"},
      {"measurement": "Fasting Plasma Triglyceride Levels", "setting": "[3]; 5 mg/kg i.p., treatment day 7, less than s.c. Control, p < 0.02", "value": "91.1 ± 14.5^2 mg/dL"},
      {"measurement": "Fasting Plasma Triglyceride Levels", "setting": "[3]; 5 mg/kg i.p., treatment day 14, less than s.c. Control, p < 0.01", "value": "115 ± 14.2^4 mg/dL"},
      {"measurement": "Fasting Plasma Triglyceride Levels", "setting": "[3]; 5 mg/kg i.p., treatment day 17", "value": "116 ± 17.0", "unit": "mg/dL"},
      {"measurement": "Fasting Plasma Triglyceride Levels", "setting": "[3]; 5 mg/kg s.c., treatment day 0", "value": "126 ± 20.9", "unit": "mg/dL"},
      {"measurement": "Fasting Plasma Triglyceride Levels", "setting": "[3]; 5 mg/kg s.c., treatment day 7, less than s.c. Control, p < 0.02", "value": "115 ± 33.3^2 mg/dL"},
      {"measurement": "Fasting Plasma Triglyceride Levels", "setting": "[3]; 5 mg/kg s.c., treatment day 14, less than s.c. Control, p < 0.01", "value": "115 ± 15.7^4 mg/dL"},
      {"measurement": "Fasting Plasma Triglyceride Levels", "setting": "[3]; 5 mg/kg s.c., treatment day 17", "value": "115 ± 13.7", "unit": "mg/dL"},
      {"measurement": "Fasting Plasma Triglyceride Levels", "setting": "[3]; 200 mg/kg oral, treatment day 0", "value": "126 ± 18.6", "unit": "mg/dL"},
      {"measurement": "Fasting Plasma Triglyceride Levels", "setting": "[3]; 200 mg/kg oral, treatment day 7, less than oral Control, p < 0.01", "value": "107 ± 38.9^1 mg/dL"},
      {"measurement": "Fasting Plasma Triglyceride Levels", "setting": "[3]; 200 mg/kg oral, treatment day 14, less than oral Control, p < 0.001", "value": "95.7 ± 15.6^3 mg/dL"},
      {"measurement": "Fasting Plasma Triglyceride Levels", "setting": "[3]; 200 mg/kg oral, treatment day 17, less than oral Control, p < 0.001", "value": "100 ± 13.1^3 mg/dL"},
      {"measurement": "Mortality (mice died)", "setting": "[4]; 5 mg/kg, i.p. group, about two weeks later", "value": 1, "unit": "mouse"},
      {"measurement": "Mortality (mice died)", "setting": "[4]; 200 mg/kg oral group, about 17 days later", "value": 1, "unit": "mouse"}
    ]}
  ]
}
